Data set [1] concerns Mycobacterium tuberculosis. The experiment in a line: Antimycobacterial activity against Mycobacterium tuberculosis H37Rv after 28 days. In kind it is functional. To be noted: 672 h.
Data set [2] is described as follows: Drug degradation assessed as 2-hydroxyethylthio-2,4-dinitrobenzene production at pH 7.4 after 6 hrs in the presence of 2-mercaptoethanol. Format: physicochemical. To be noted: buffer, pH 7.4, 6 h.
The nature of data set [3]: Drug degradation assessed as decrease in compound level at pH 7.4 after 30 mins in the presence of 2-mercaptoethanol. In kind it is physicochemical. The conditions noted are these: buffer, pH 7.4, 0.5 h.

Values after ≈ are worked out from the molar mass of the structure shown. A value given as a limit tells only on which side of the number the result lay.

As a reminder, the MIC is the lowest concentration found to suppress growth.

Take `C[C@@H](NS(=O)(=O)c1ccc([N+](=O)[O-])cc1[N+](=O)[O-])c1ccccc1`: in data set [1], it took 1.56 mg/L (≈ 4.44 µM) to inhibit growth (MIC).

In the case of `O=[N+]([O-])c1ccc(S(=O)(=O)NCc2ccc(C(F)(F)F)cc2)c([N+](=O)[O-])c1`, in data set [1], the MIC amounted to 0.4 mg/L (≈ 0.987 µM).

For the molecule `O=[N+]([O-])c1ccc(S(=O)(=O)NCCc2ccccc2)c([N+](=O)[O-])c1`, the MIC in data set [1] was determined as 0.4 mg/L (≈ 1.14 µM).

Regarding `COc1ccc(NS(=O)(=O)c2ccc([N+](=O)[O-])cc2[N+](=O)[O-])cc1`, the Drug degradation entry in data set [2] and in data set [3] was “Active” in each case.

`O=[N+]([O-])c1ccc(S(=O)(=O)NCc2ccccc2C(F)(F)F)c([N+](=O)[O-])c1`: in data set [1], the minimal inhibitory concentration (MIC) was found to be 1.56 mg/L (≈ 3.85 µM).

Turning to `NNC(=O)c1ccncc1` [ISONIAZID], 0.05 mg/L (≈ 0.365 µM) was the least that counted as inhibitory in data set [1] (MIC).

Molecule `COc1ccccc1NS(=O)(=O)c1ccc([N+](=O)[O-])cc1[N+](=O)[O-]` gave a minimal inhibitory concentration (MIC) in data set [1] of 3.13 mg/L (≈ 8.86 µM).

In data set [1], `CC[C@@H](CO)NCCN[C@@H](CC)CO` [ETHAMBUTOL] had an MIC of 1.56 mg/L (≈ 7.64 µM).

The molecule `O=[N+]([O-])c1ccc(S(=O)(=O)N(CCc2ccccc2)Cc2ccccc2)c([N+](=O)[O-])c1` registered an MIC in data set [1] of 3.13 mg/L (≈ 7.09 µM).

`N#Cc1ccc(NS(=O)(=O)c2ccc([N+](=O)[O-])cc2[N+](=O)[O-])cc1` had an MIC in data set [1] of over 50 mg/L.

On to `CN(c1ccccc1)S(=O)(=O)c1ccc([N+](=O)[O-])cc1[N+](=O)[O-]`, for which the MIC in data set [1] was determined as 0.78 mg/L (≈ 2.31 µM).

On to `NC(=O)c1cnccn1` [PYRAZINAMIDE], for which the lowest concentration to inhibit growth in data set [1] (MIC) was 6.25 mg/L (≈ 50.8 µM).

Regarding `O=[N+]([O-])c1ccc(S(=O)(=O)Nc2ccc(F)cc2)c([N+](=O)[O-])c1`, the lowest concentration to inhibit growth in data set [1] (MIC) was 6.25 mg/L (≈ 18.3 µM).

Turning to `CN(CCc1ccccc1)S(=O)(=O)c1ccc([N+](=O)[O-])cc1[N+](=O)[O-]`, the minimum inhibitory concentration (MIC) in data set [1] stood at 0.78 mg/L (≈ 2.13 µM).

Turning to `C[C@H](NS(=O)(=O)c1ccc([N+](=O)[O-])cc1[N+](=O)[O-])c1ccccc1`, in data set [1], the minimal inhibitory concentration (MIC) came to 1.56 mg/L (≈ 4.44 µM).

For `O=[N+]([O-])c1ccc(S(=O)(=O)N(Cc2ccccc2)c2ccccc2)c([N+](=O)[O-])c1`, the MIC in data set [1] stood at 1.56 mg/L (≈ 3.77 µM).

Molecule `COc1ccc(CNS(=O)(=O)c2ccc([N+](=O)[O-])cc2[N+](=O)[O-])cc1` returned an MIC in data set [1] of 0.25 mg/L (≈ 0.681 µM).

For `O=[N+]([O-])c1ccc(S(=O)(=O)NCc2ccc(Cl)cc2)c([N+](=O)[O-])c1`, the MIC in data set [1] turned out to be 0.4 mg/L (≈ 1.08 µM).
